Some test systems named below: T-47D breast; HCT-15 colon; 786-0 renal; MCF7 breast; SNB-75 CNS; NCI-H226 lung; IGROV1 ovarian; SR leukemia; SK-MEL-2 melanoma; MDA-N; UO-31 renal; UACC-62 melanoma.
Holding throughout (assay): NCI tumour cell line growth inhibition, 48 h

Molecules are shown by their SMILES.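 Cells were grown in 96-well plates and exposed to each compound for 48 hours at five concentrations; endpoints were interpolated linearly between bracketing concentrations, or set to the highest concentration if not reached. GI50 marks 50% less growth. TGI is the concentration that stops growth completely.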 A value given as a limit tells only on which side of the number the result lay.

As for `FC1(F)ON2CCc3ccccc3C2[C@H]1c1ccccc1` (stereo partly drawn), the TGI with T-47D breast was above 100 µM; with HCT-15 colon it was above 100 µM; in the assay with 786-0 renal, 96.7 µM; in the assay on MCF7 breast it was above 100 µM; in the assay with SNB-75 CNS, 70.8 µM; in the assay with NCI-H226 lung it was above 100 µM. Further, the TGI with IGROV1 ovarian, in the assay with SR leukemia, with SK-MEL-2 melanoma, in the assay on MDA-N, with UO-31 renal and in the assay with UACC-62 melanoma was above 100 µM throughout. The GI50 in the assay on HCT-15 colon, in the assay with MCF7 breast, in the assay with IGROV1 ovarian, with SR leukemia, with SK-MEL-2 melanoma and with MDA-N was above 100 µM throughout. Besides, in the assay on UACC-62 melanoma, the GI50 was above 100 µM.
In the case of `CN(C)Cc1cc(Cl)c(O)c(CN(C)C)c1`, the TGI with T-47D breast, with HCT-15 colon, in the assay with 786-0 renal, in the assay with MCF7 breast, in the assay with SNB-75 CNS and with NCI-H226 lung was above 100 µM in each case. The TGI with IGROV1 ovarian, in the assay on SR leukemia, with SK-MEL-2 melanoma, with MDA-N, in the assay with UO-31 renal and in the assay with UACC-62 melanoma was above 100 µM in each case.
Take `O=c1[nH]c(Nc2ccc(Br)c(C(F)(F)F)c2)nc2nc[nH]c12`: the TGI with T-47D breast, in the assay on HCT-15 colon, with 786-0 renal, in the assay on MCF7 breast, in the assay with SNB-75 CNS and in the assay with NCI-H226 lung was above 100 µM throughout. Besides, the TGI is above 100 µM in the assay on IGROV1 ovarian; above 100 µM with SR leukemia; 44.4 µM with SK-MEL-2 melanoma; above 100 µM in the assay on MDA-N; 77.4 µM in the assay with UO-31 renal; 61.6 µM in the assay on UACC-62 melanoma.
Turning to `NS(=O)(=O)c1ccc(NC(=O)N/N=C/c2ccccc2[N+](=O)[O-])cc1`, the TGI in the assay on T-47D breast, with HCT-15 colon, in the assay with 786-0 renal, in the assay with MCF7 breast, in the assay with SNB-75 CNS and in the assay on NCI-H226 lung was above 100 µM each time. Further, the TGI with IGROV1 ovarian was above 100 µM; in the assay on SR leukemia it was above 100 µM; in the assay with SK-MEL-2 melanoma it was above 100 µM; with MDA-N it was 39 µM; in the assay with UO-31 renal, above 100 µM; with UACC-62 melanoma, above 100 µM.
`Nn1c(CCCCCCCCc2nnc(-c3c(O)ccc4ccccc34)n2N)nnc1-c1c(O)ccc2ccccc12`: the TGI in the assay with T-47D breast, with HCT-15 colon, in the assay with 786-0 renal, in the assay with MCF7 breast, in the assay on SNB-75 CNS and with NCI-H226 lung was above 100 µM in each case. The TGI in the assay with IGROV1 ovarian, in the assay with SR leukemia, in the assay on SK-MEL-2 melanoma, in the assay with MDA-N, in the assay with UO-31 renal and with UACC-62 melanoma was above 100 µM in each case.
Consider `C=C1C2CCC3C4(C)CCCC(C)(C(=O)O)C4CCC3(C2)C1OC(=O)/C(C)=C/C` (stereo not drawn), for which the TGI in the assay with T-47D breast is above 100 µM; in the assay on HCT-15 colon, 61.6 µM; with 786-0 renal, above 100 µM; in the assay on MCF7 breast it was 70.8 µM; in the assay with SNB-75 CNS it was above 100 µM; in the assay on NCI-H226 lung, above 100 µM. In addition, the TGI was above 100 µM with IGROV1 ovarian; 9.55 µM in the assay on SR leukemia; above 100 µM in the assay on SK-MEL-2 melanoma; 68.2 µM in the assay on MDA-N; 52.9 µM in the assay with UO-31 renal; 62.2 µM in the assay with UACC-62 melanoma.
On to `CCn1c(SCC(=O)N/N=C2\SCC(=O)N2c2ccc(C)cc2)nc2ccccc2c1=O`, for which the TGI with T-47D breast is 54.9 µM; in the assay with HCT-15 colon, above 100 µM; with 786-0 renal, 35 µM; in the assay with MCF7 breast, 45.9 µM; in the assay on SNB-75 CNS it was 36.6 µM; in the assay with NCI-H226 lung, 64.8 µM. Further, the TGI is 43.2 µM in the assay with IGROV1 ovarian; 47.2 µM in the assay with SR leukemia; above 100 µM in the assay with SK-MEL-2 melanoma; 53.4 µM with MDA-N; 30.3 µM in the assay on UO-31 renal; 29.1 µM with UACC-62 melanoma.
As to `C#CC1(O)CCC2[C@@H]3CCc4cc(Oc5nc(F)nc(-c6c(C)c(C(=O)OCC)n7ccccc67)n5)ccc4C3CC[C@@]21C` (stereo partly drawn), the TGI in the assay with T-47D breast, with HCT-15 colon, with 786-0 renal, with MCF7 breast, in the assay on SNB-75 CNS and in the assay with NCI-H226 lung was above 100 µM throughout. In addition, the TGI in the assay on IGROV1 ovarian, in the assay with SR leukemia, in the assay on SK-MEL-2 melanoma, in the assay with MDA-N, in the assay on UO-31 renal and in the assay on UACC-62 melanoma was above 100 µM each time.
On to `Cc1ncn(-c2ccccc2O)c1C`, for which the TGI in the assay with T-47D breast, with HCT-15 colon, in the assay with 786-0 renal, in the assay on MCF7 breast, in the assay with SNB-75 CNS and with NCI-H226 lung was above 100 µM in each case. Also, the TGI with IGROV1 ovarian, in the assay on SR leukemia, in the assay with SK-MEL-2 melanoma, in the assay on MDA-N, in the assay on UO-31 renal and in the assay with UACC-62 melanoma was above 100 µM each time.
Turning to `CC(C)(C)c1cc(/C=C(\C#N)C2=NCCO2)cc(C(C)(C)C)c1O`, the TGI in the assay with T-47D breast came out at 9.13 µM; with HCT-15 colon it was 13.1 µM; in the assay on 786-0 renal it was 14.7 µM; with MCF7 breast, 12.7 µM; in the assay with SNB-75 CNS it was 7.47 µM; with NCI-H226 lung it was 20.1 µM. Besides, the TGI with IGROV1 ovarian was 21.9 µM; with SR leukemia, 8.91 µM; with SK-MEL-2 melanoma, 8.55 µM; with MDA-N it was 16.6 µM; with UO-31 renal, 9.27 µM; in the assay with UACC-62 melanoma, 17.1 µM.
Take `Cc1ccc2c(c1)nc1n2C(c2c(F)cccc2F)SC1` (stereo not drawn): the TGI is above 100 µM in the assay with T-47D breast; 82.4 µM in the assay on HCT-15 colon; above 100 µM in the assay on 786-0 renal; above 100 µM in the assay with MCF7 breast; above 100 µM with SNB-75 CNS; above 100 µM with NCI-H226 lung. Moreover, the TGI is above 100 µM in the assay on IGROV1 ovarian; 87.9 µM in the assay on SR leukemia; 48.2 µM with SK-MEL-2 melanoma; above 100 µM with MDA-N; above 100 µM with UO-31 renal.

The values are drawn from PubChem BioAssay (NCI).
